Assay results reported in US10745731B2, “Recombinant production method” (Hoffmann-La Roche Inc., priority 2015, dated 2020).
Like-named read-outs stand apart in the source and are kept apart here.

Columns and labels:
HEK293F cells [1] = assay: Transient gene expression in HEK293F cells: cell specific productivity of the expressed antibody; type: cell-based, human; settings: for specific productivity after 96 hours: none 2.01; for activity at 0.015 µM: 15 nM; for Mean cell specific productivity: untreated 1.71; for TGE enhancement after BAY11-7082 treatment compared to the corresponding single treatment: BAY11-7082 added 24 hours after stimulation
Description: HEK293F cells were cultivated in F17 medium (Life Technologies) in shaker flasks at 36.5° C., 7.0% CO2 and 80% humidity in a shaker incubator (Kuhner, Mytron). Cells were split every three to four days and were cultivated no longer than five weeks. To avoid overgrowth and to keep them in the exponential phase of growth, viable cell densities (VCD) never exceeded 60*10^5 cells/mL.
(§1) Transient gene expression is a 5-7 days lasting procedure. The standard operating procedure of this expression system is applicable to shaker flasks with various volumes of cell culture ranging from 80 mL to 2 L. First, half of the cell culture volume is seeded at a viable cell density (VCD) of 8*10^5 cells/mL. After two days of cultivation, cells are split to a VCD of about 12*10^5 cells/mL. On the next day, cells are transfected with a polyethylene imine (PEI)-based transfection reagent at a VCD between 20*10^5 cells/mL and 25*10^5 cells/mL. 3 hours after transfection, the production enhancer (if any) is added. 24 h after transfection, a feeding solution and a glucose bolus is supplemented to avoid the limitation of nutrients. Depending on cell viability, which should not decrease below 50%, the supernatant is harvested five to seven days post transfection and subjected to antibody purification.
(§2) To compare transient gene expression rates always the same plasmids encoding for one distinct antibody were co-transfected.
(§3) To co-transfect two plasmids equimolarily, the ratio of the base pair number of one plasmid to the total base pair number was calculated and multiplied with the total amount of DNA (0.5 mg/L). Plasmid one has a size of 10530 bp and plasmid two has a size of 7184 bp and were solved in water to a final concentration of 1 mg/mL. For transfection of one liter cell culture, 297 μL of plasmid one and 203 μl of plasmid two were dissolved in 40 mL phosphate buffered saline (PBS) at room temperature. 1.25 mL JetPEI® solution was added and the solution was mixed well. After incubation for 10-15 min., the mixture was added to the cells. The cells were transfected in a batch containing the whole cell culture necessary for every experiment to avoid variance arising from different transfection efficiencies.
(§4) 80 mL of the transfected cell culture batch was added to a 125 ml shaker flask. For every experiment, two or three 125 mL shaker flasks were used as biological replicates and treated the same way. Three hours after transfection, cells were split into 125 mL shaker flasks and the cellular treatments with small molecules or ligands were started. Basal protein expression was determined by untreated control samples. To compare samples with the standard operating procedure, cells were also treated with VPA to a final concentration of 4 mM or 3 mM. VPA and its analogues were dissolved in double distilled water. […] Tumor necrosis factor (TNF) alpha was reconstituted with PBS supplemented with 0.1% BSA. Flagellin was dissolved in sterile double distilled water. The applied molecules were not added to the cultivation directly, but diluted in 16 mL medium pre-warmed to 36.5° C. and added to the cultivation thereafter.
(§5) 24 h after transfection a feeding solution at 36.5° C. and 3 mg/mL glucose were added to the cultivation.
(§6) To determine cell viability and viable cell density (VCD) 1 mL cultivation medium (cell suspension) was transferred into a Cedex low fouling sample cup. The cup was placed into a Vicell instrument (Beckman Coulter). The instrument mixes cells with trypan blue to stain dead cells. After analysis of 50 images VCD was calculated and viability was determined by calculation of the percentage of viable cell number in relation to the total cell number.
(§7) Total concentration of the transiently expressed antibody was determined by a turbidimetric test. One mL cell suspension was transferred into an Eppendorf cup and centrifuged for 10 min. at 10,000 rpm (9,300 g).

HDAC [2] = settings: cited from earlier work
HEK293F cells [3] = assay: Transient gene expression in HEK293F cells: IgG concentration / titer (turbidimetric test); type: cell-based, human; settings: none=100, N=1, FIG. 7
Description: as §1, §2, §3, §4, §5
as §7, with “g). The supernatant was transferred into a new cup and subjected to Cobas Integra 400 plus (Roche) analysis. With comparison to internal standard the absolute concentration was calculated.” for “g).”

HEK293F cells [4] = type: cell-based; settings: in words
Description: as §6

HDAC [5] = assay: in situ HDAC activity fluorimetric assay in HEK293F cells; type: cell-based, human; settings: for HDAC inhibition: yes/no, summary table
Description: HDAC activity was determined by the in situ HDAC activity fluorimetric assay kit (Biovision) according to the manufacturer's instructions. HEK293F cells were suspended in F17 medium (Life Technologies) to a cell density of 5*10^5 cells/mL. One hundred micro liter culture was pipetted per well into a black ELISA plate. The plate was centrifuged at 1000 g for 5 min. The supernatant was discarded and the cells were resuspended in a reaction mix containing F17 medium, 1% HDAC substrate and the molecule tested towards HDAC inhibitory activity. 10 μM Trichostatin A was used as a positive control and the basal HDAC activity was determined by re-suspending the cells in F17 medium with 1% HDAC substrate. Furthermore, cells were resuspended in F17 medium without HDAC substrate as a background control. The HDAC activity assay was performed in triplicates for every sample as well as every control. The 96-well plate was incubated at 36.5° C., 80% humidity and 7% CO2 for one hour. During this time, the active HDACs deacetylate the HDAC substrate what releases the quenched fluorescent signal of the substrate. After incubation the fluorescent signal was analyzed by the infinite fluorescence plate reader (TECAN). The fluorescence signal of the samples and controls was normalized by subtracting the fluorescence signal of the background control. It is assumed that the fluorescent signal arising from deacetylation of the substrate directly correlates with HDAC activity.

[6] = description from the literature
[7] = 50 ng/mL, none=100, N=2, FIG. 5

Compound: Cc1ccc(S(=O)(=O)/C=C/C#N)cc1 [BAY 11-7082, BAY11-7082]
- specific productivity after 96 hours (HEK293F cells [1]; 1 μM alone, N=3): 2.21 pg/cell/day
- specific productivity after 96 hours (HEK293F cells [1]; 5 μM alone, N=3): 2.30 pg/cell/day
- specific productivity after 96 hours (HEK293F cells [1]; 15 μM alone, N=3): 2.27 pg/cell/day
- duration of the effect (HEK293F cells [1]; NFκB (IκB kinase) inhibition in transfected HEK293F cells): about 4 days

Compound: O=C(/C=C/c1cccc(S(=O)(=O)Nc2ccccc2)c1)NO [Belinostat]
- activity at 1 µM (HEK293F cells [1]; Homo sapiens, HEK293F, employed concentration 1 μM, none=100, N=2, FIG. 2B, read-out: relative cell specific productivity): 115%

Compound: CCCCOc1ccc(CC(=O)NO)cc1 [Bufexamac]
- activity at 10 µM (HEK293F cells [1]; Homo sapiens, HEK293F, employed concentration 10 μM, none=100, N=1, FIG. 2B, read-out: relative cell specific productivity): 94%
- HDAC class / isoform selectivity (HDAC [2]; [6]): selective class IIb HDAC inhibitor

Compound: Nc1ccccc1NC(=O)c1ccc(CNC(=O)OCc2cccnc2)cc1 [Entinostat]
- activity at 0.3 µM (HEK293F cells [1]; Homo sapiens, HEK293F, employed concentration 300 nM, none=100, N=2, FIG. 2B, read-out: relative cell specific productivity): 108%
- HDAC class / isoform selectivity (HDAC [2]; [6]): class I HDAC inhibitor with additional inhibitory activity to class IIa member HDAC 9

Compound: Nc1ccccc1NC(=O)c1ccc(CNc2nccc(-c3cccnc3)n2)cc1 [Mocetinostat]
- activity at 2 µM (HEK293F cells [1]; Homo sapiens, HEK293F, employed concentration 2 μM, none=100, N=2, FIG. 2B, read-out: relative cell specific productivity): 135%
- HDAC class / isoform selectivity (HDAC [2]; [6]): lowest IC50 values for HDAC 1 and 2 and modest inhibitory activity against HDAC 3 and HDAC 11

Compound: COc1ccc(Cn2ccc3ccc(C(=O)NO)cc32)cc1 [PCI34051]
- HDAC class / isoform selectivity (HDAC [2]; [6]): HDAC 8-specific inhibitor
- relative IgG concentration (HEK293F cells [3]; 5 μM): 99%

Compound: CCCCCCCCCCCCCC(=O)O[C@@H]1[C@@H](C)[C@@]2(O)[C@@H](C=C(CO)C[C@]3(O)C(=O)C(C)=C[C@@H]23)[C@@H]2C(C)(C)[C@]12OC(C)=O [PMA, phorbol myristate acetate]
- activity at 0.1 µM (HEK293F cells [1]; Homo sapiens, HEK293F, 100 nM, none=100, N=2, FIG. 5, read-out: relative cell specific productivity): 149%

Compound: Nc1cc(F)ccc1NC(=O)/C=C/c1cnn(C/C=C/c2ccccc2)c1 [RGFP966]
- HDAC class / isoform selectivity (HDAC [2]; [6]): specific HDAC 3 inhibitor
- relative IgG concentration (HEK293F cells [3]; 1 μM): 103%

Compound: C/C=C1\NC(=O)[C@H]2CSSCC/C=C/[C@H](CC(=O)N[C@H](C(C)C)C(=O)N2)OC(=O)[C@H](C(C)C)NC1=O [Romidepsin]
- activity at 0.015 µM (HEK293F cells [1]; Homo sapiens, HEK293F, none=100, N=3, FIG. 8A, read-out: relative cell specific productivity): 203%
- activity at 0.015 µM (HEK293F cells [1]; Homo sapiens, HEK293F, none=100, N=3, FIG. 9A, read-out: relative cell specific productivity): 203%
- toxicity (HEK293F cells [4]): mild toxicity

Compound: O=C(NCC1(c2nc(-c3ccccc3)cs2)CCOCC1)c1cccc(-c2noc(C(F)(F)F)n2)c1 [TMP269]
- relative cell specific productivity (HEK293F cells [1]; employed concentration 15 μM, none=100, N=2, FIG. 2B): 99%
- HDAC class / isoform selectivity (HDAC [2]; [6]): preference to class IIa HDACs 4, 5, 7, and 9

Compound: CC(/C=C/C(=O)NO)=C\[C@@H](C)C(=O)c1ccc(N(C)C)cc1 [Trichostatin A]
- HDACi (HDAC [5]): 99%

Compound: CCC(=O)CCCCC[C@@H]1NC(=O)[C@H]2CCCCN2C(=O)[C@H]([C@@H](C)CC)NC(=O)[C@H](Cc2cn(OC)c3ccccc23)NC1=O [apicidin, Apicidin]
- relative IgG concentration (HEK293F cells [3]; 200 nM): 182%

Compound: C=C(C)[C@@H]1CC[C@]2(C(=O)O)CC[C@]3(C)[C@H](CC[C@@H]4[C@@]5(C)CC[C@H](O)C(C)(C)[C@@H]5CC[C@]43C)[C@@H]12 [betulinic acid]
- activity at 10 µM (HEK293F cells [1]; Homo sapiens, HEK293F, 10 μM, none=100, N=2, FIG. 5, read-out: relative cell specific productivity): 121%

Compound: Cc1ccc(NC(=O)CCCCCC(=O)Nc2ccccc2N)cc1 [pimelic diphenylamide 106]
- activity at 20 µM (HEK293F cells [1]; Homo sapiens, HEK293F, 20 μM, transfected control=100, N=3, FIG. 3B, read-out: relative cell specific productivity): 171%
- activity at 20 µM (HEK293F cells [1]; Homo sapiens, HEK293F, employed concentration 20 μM, none=100, N=2, FIG. 2B, read-out: relative cell specific productivity): 160%
- Mean cell specific productivity (HEK293F cells [1]; conc. 20 μM): 5.4 (20 μM) pg/cell/24 h
- HDAC selectivity (HDAC [2]; HDAC classes, summary table): Class I
- HDAC class / isoform selectivity (HDAC [2]; [6]): class I HDAC inhibitor with highest affinity towards HDAC 1 and 3, high affinity towards HDAC 2 and modest affinity towards HDAC 8
- HDACi (HDAC [5]; 20 μM, N=3, FIG. 3A): 22.6%
- HDAC inhibition (HDAC [5]): yes

Compound: CCC(C)C(CC)C(N)=O (centres unmarked) [valnoctamide]
- TGE enhancement (HEK293F cells [1]; 2 mM, in words): Weak TGE enhancement
- activity at 3000 µM (HEK293F cells [1]; Homo sapiens, HEK293F, 3 mM, transfected control=100, N=3, FIG. 3B, read-out: relative cell specific productivity): 122%
- activity at 2000 µM (HEK293F cells [1]; Homo sapiens, HEK293F, employed concentration 2 mM, none=100, N=2, FIG. 4, read-out: relative cell specific productivity): 133%
- activity at 3000 µM (HEK293F cells [1]; Homo sapiens, HEK293F, employed concentration 3 mM, none=100, N=2, FIG. 4, read-out: relative cell specific productivity): 125%
- Mean cell specific productivity (HEK293F cells [1]; conc. 3 mM): 1.71 (3 mM) pg/cell/24 h
- Effect on titer/SPR (HEK293F cells [1]; summary table, in words): weak
- HDACi (HDAC [5]; 3 mM, N=3, FIG. 3A): 11.1%
- HDAC inhibition (HDAC [5]): no

Compound: CCC(C)C(CC)C(=O)O (centres unmarked) [valnoctic acid]
- HDAC inhibitory activity (HDAC [2]; [6]): weak HDAC inhibitory activity

Compound: EGF: epidermal growth factor, NFκB activator
- specific productivity after 96 hours (HEK293F cells [1]; 20 ng/mL, single treatment, N=3): 2.56 pg/cell/day
- relative cell specific productivity (HEK293F cells [1]; [7]): 173%
- TGE enhancement after BAY11-7082 treatment compared to the corresponding single treatment (HEK293F cells [1]): significantly reduced

Compound: TNFalpha
- relative cell specific productivity (HEK293F cells [1]; [7]): 139%
- specific productivity after 96 hours (HEK293F cells [1]; 50 ng/mL, single treatment, N=3): 2.66 pg/cell/day
- relative cell specific productivity (HEK293F cells [1]; 50 ng/mL, single treatment, none=100, N=3): 157%
- TGE enhancement after BAY11-7082 treatment compared to the corresponding single treatment (HEK293F cells [1]): significantly reduced
